# Assay results from PubChem BioAssay AID2060488 (Molecular Pharmacology Branch, DTP, NCI, 2025).
# System: 966289-007-R4-J1-PDC complex spheroid viability
# Assay: Anticancer human tumor 966289-007-R4-J1-PDC patient-derived pancreatic adenocarcinoma cell line growth inhibition [GQUAD]
# Conditions: for IC50: curve of first compound; for viability, T/C: stronger effect = lower value
# Description: DNA G-quadruplex Stabilizer Agents in Combinations in Complex Spheroids
# A high-throughput screen of multi-cell type tumor spheroids was designed to identify active combinations of DNA G-quadruplex stabilizer agents and targeted small molecules. Complex spheroids include a stromal component modeled by human endothelial cells (HUVEC) and fibroblasts modeled by human mesenchymal stem cells (MSCs). The concentration ranges selected for each drug and investigational agent were based upon clinically achievable concentrations if the clinical Cmax of the agent was known.
# Compounds. The drugs and investigational agents: pidnarulex (CX-5461; NSC782164), APTO-253 (NSC789042), BRACO-19 (NSC847499), peposertib (NSC802822), ceralasertib (NSC780249), elimusertib (NSC800525), camonsertib (NSC841442), AZD-1390 (NSC803789), olaparib (NSC753686), talazoparib (NSC767125), ART-558 (NSC835418), sotorasib (NSC818433), MRTX-1133 (NSC836407), SN-38 (NSC673596), topotecan (NSC609699), etoposide (NSC141540), doxorubicin (NSC123127), gemcitabine (NSC613327), 5-fluorouracil (NSC19893), paclitaxel (NSC125973), vemurafenib (NSC761431), panobinostat (NSC761190), R-306465 (JNJ-16241199; NSC773264), adavosertib (NSC754352), TP-3654 (NSC805149), carboplatin (NSC241240), KSQ-4279 (NSC840948), and staurosporine (NSC755774) were obtained from the National Cancer Institute (NCI) Developmental Therapeutics Program Chemical Repository (34). The FDA-approved anticancer drug set is available from the NCI Developmental Therapeutics Program. […] The stock solutions were prepared in dimethyl sulfoxide (DMSO, Sigma-Aldrich, St. Louis, MO, cat. D2650) at 800-fold the tested concentration and stored at -70 degrees C prior to their use. All drugs and investigational agents were tested over a range starting from a high concentration at or near the clinical Cmax and decreasing in half-log increments. If the clinical Cmax for an agent had not been determined, the highest concentration tested was 10 microM.
# 2.3 Cell Culture. All cells were maintained in an incubator at 37 degrees C and 5% CO2 with 95% humidity. The PDC lines were cultured according to standard operating procedures established by the NCI PDMR. All PDCs were thawed and cultured in Matrigel-coated flasks prepared with a working solution of 1X Ham's F-12 nutrient mix, without supplementation (Invitrogen, cat. 11765054), 100 U/mL penicillin-streptomycin (Invitrogen, cat. 15140122), and 2.5% Matrigel (Corning Inc., cat. 354248) for the first three passages. The 857933-349-R-J2-PDC line was cultured in 6C/Colon 1B media, which includes advanced DMEM/F-12 (Thermo Fisher Scientific, cat. 12634028), 10 mM HEPES (Thermo Fisher Scientific, cat. 15630080), 1X GlutaMAX supplement (Thermo Fisher Scientific, cat. 35050061), 0.1 mg/mL primocin (InvivoGen, cat. ant-pm-2), 10% defined fetal bovine serum, heat inactivated (HyClone Laboratories Inc., cat. SH30070.03HI), 50% L-WRN conditioned media (ATCC, cat. CRL-3276), 1.25 mM N-Acetyl-L-cysteine (Sigma-Aldrich, cat. A9165), 10 mM nicotinamide (Sigma-Aldrich, cat. N0636), 1X B-27 supplement (Thermo Fisher Scientific, cat. 17504044), 1X N-2 supplement (Thermo Fisher Scientific, cat. 17502048), 10 microM Y-27632 dihydrochloride (Tocris Bioscience, cat. 1254), and 50 ng/mL human EGF recombinant protein (Thermo Fisher Scientific, cat. PHG0311). The 485176-168-R4-J1-PDC line was cultured in Panc media, which includes all 6C/Colon 1B media components plus 100 ng/mL human FGF-10 (Thermo Fisher Scientific, cat. 100-26), 500 nM SB-431542 (Selleckchem, cat. S1067), and gastrin (Tocris, cat. 3006).
# […]
# 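Further: spheroids exposed to the agents for seven days before readout.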
# 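Wherever viability, T/C is given: percent viability relative to DMSO vehicle control wells taken as 100%.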
structure (smiles),measurement,setting,value
Cn1ncnc1[C@H]1c2n[nH]c(=O)c3cc(F)cc(c23)N[C@@H]1c1ccc(F)cc1 + Cc1[nH]c2ccc(F)cc2c1-c1nc2c3cccnc3c3ncccc3c2[nH]1,IC50,second compound 0.0316 µM,101 nM
same,IC50,second compound 0.1 µM,89.8 nM
same,IC50,second compound 0.316 µM,105 nM
same,IC50,second compound 1 µM,127 nM
same,IC50,second compound 3.16 µM,76.3 nM
same,IC50,second compound 10 µM,63.6 nM
same,"viability, T/C","second compound 0.0316 µM, first compound 0.000999 µM",108%
same,"viability, T/C","second compound 0.0316 µM, first compound 0.00316 µM",95.8%
same,"viability, T/C","second compound 0.0316 µM, first compound 0.00999 µM",105%
same,"viability, T/C","second compound 0.0316 µM, first compound 0.0316 µM",96.8%
same,"viability, T/C","second compound 0.0316 µM, first compound 0.0999 µM",50.3%
same,"viability, T/C","second compound 0.0316 µM, first compound 0.316 µM",21%
same,"viability, T/C","second compound 0.1 µM, first compound 0.000999 µM",101%
same,"viability, T/C","second compound 0.1 µM, first compound 0.00316 µM",99.4%
same,"viability, T/C","second compound 0.1 µM, first compound 0.00999 µM",106%
same,"viability, T/C","second compound 0.1 µM, first compound 0.0316 µM",99.3%
same,"viability, T/C","second compound 0.1 µM, first compound 0.0999 µM",44.9%
same,"viability, T/C","second compound 0.1 µM, first compound 0.316 µM",20%
same,"viability, T/C","second compound 0.316 µM, first compound 0.000999 µM",101%
same,"viability, T/C","second compound 0.316 µM, first compound 0.00316 µM",107%
same,"viability, T/C","second compound 0.316 µM, first compound 0.00999 µM",108%
same,"viability, T/C","second compound 0.316 µM, first compound 0.0316 µM",105%
same,"viability, T/C","second compound 0.316 µM, first compound 0.0999 µM",51.5%
same,"viability, T/C","second compound 0.316 µM, first compound 0.316 µM",18.6%
same,"viability, T/C","second compound 1 µM, first compound 0.000999 µM",101%
same,"viability, T/C","second compound 1 µM, first compound 0.00316 µM",103%
same,"viability, T/C","second compound 1 µM, first compound 0.00999 µM",112%
same,"viability, T/C","second compound 1 µM, first compound 0.0316 µM",102%
same,"viability, T/C","second compound 1 µM, first compound 0.0999 µM",58.4%
same,"viability, T/C","second compound 1 µM, first compound 0.316 µM",18.6%
same,"viability, T/C","second compound 3.16 µM, first compound 0.000999 µM",105%
same,"viability, T/C","second compound 3.16 µM, first compound 0.00316 µM",105%
same,"viability, T/C","second compound 3.16 µM, first compound 0.00999 µM",110%
same,"viability, T/C","second compound 3.16 µM, first compound 0.0316 µM",92.8%
same,"viability, T/C","second compound 3.16 µM, first compound 0.0999 µM",36.9%
same,"viability, T/C","second compound 3.16 µM, first compound 0.316 µM",12.1%
same,"viability, T/C","second compound 10 µM, first compound 0.000999 µM",106%
same,"viability, T/C","second compound 10 µM, first compound 0.00316 µM",105%
same,"viability, T/C","second compound 10 µM, first compound 0.00999 µM",109%
same,"viability, T/C","second compound 10 µM, first compound 0.0316 µM",88.3%
same,"viability, T/C","second compound 10 µM, first compound 0.0999 µM",25.3%
same,"viability, T/C","second compound 10 µM, first compound 0.316 µM",11.6%
